# Experimental data published in publication PMC9097129, “C-terminal mini-PEGylation of a marine peptide N6 had potent antibacterial and anti-inflammatory properties against Escherichia coli and Salmonella strains in vitro and in vivo” (BMC Microbiology, 2022).
# How the values were obtained:
# E. coli CVCC195 [1] = experiment: Bacterial translocation, bacterial loads in organs; assay type: in vivo, mice; parameters: unit not given here; settings: mean of n = 3
# Protocol: The mice (10 mice/group) were challenged with E. coli CVCC195 (1 × 10^9 CFU/mL, 0.2 mL) or S. pullorum CVCC533 (5 × 10^7 CFU/mL, 0.2 mL) by intraperitoneal injection and treated with N6 (4 and 10 μmol/kg) or N6-COOH-miniPEG (4 and 10 μmol/kg). To evaluate bacterial loads in organs, the livers, spleens, kidneys and lungs were removed from the sacrificed mice at 24 h post treatment and homogenized in sterile PBS for E. coli CVCC195 colony counting; similarly, the livers, spleens, kidneys and lungs were removed from the sacrificed mice at 48 h after treatment and homogenized in sterile PBS for S. pullorum CVCC533 colony counting. The uninfected mice served as the blank control (CK); the infected mice treated with PBS were used as the negative control. The mice were sacrificed by neck dislocation under inhaled isoflurane anesthesia (RWD Life Science Co., LTD. Shenzhen, China).
# E. coli 0111:B4 LPS = experiment: Endotoxemia mouse model, serum cytokines by ELISA; assay type: in vivo, mice; parameters: levels of TNF-α in sera: unit not given here; settings: ELISA kit, mean of n = 3
# Protocol: The mice (10 mice/group) were injected intraperitoneally with N6 and N6-COOH-miniPEG (0.25 μmol/kg), PMB (10 μmol/kg) or CIP (5 μmol/kg) 0.5 h after challenge with 10 mg/kg E. coli 0111:B4 LPS. Blood was collected in a heparin sodium tube at 2 or 8 h after LPS injection and incubated for 30 min at 37 °C and then overnight at 4 °C. After centrifugation at 3,000 rpm for 10 min at 4 °C, serum was collected from supernatant. The cytokine levels of TNF-α, IL-6, IL-1β and IL-10 in serum were detected by the Jiaxuan Biotech. Co. Ltd. (Beijing, China) using an ELISA. […]
# E. coli CVCC195 [2] = experiment: Organ injury, histopathology (HE); assay type: in vivo, mice; settings: 24 h and 5 d post-treatment, peptides 4 μmol/kg, HE staining
# Protocol: The mice were treated with N6 (4 and 10 μmol/kg) and N6-COOH-miniPEG (4 and 10 μmol/kg) after intraperitoneal injection of E. coli CVCC195 for 0.5 and 8 h or S. pullorum CVCC533 for 0.5 h as described above. Livers, spleens, kidneys and lungs were removed from the mice at 24 h and 5 d post-treatment after E. coli CVCC195 injection and at 48 h and 4 d post-treatment after S. pullorum CVCC533 injection, respectively, washed in PBS, fixed in 4% paraformaldehyde at 4 °C for 24 h, and stained with hematoxylin and eosin (HE) for histopathology analysis. Finally, the tissue samples were fixed and observed by the light microscope. The uninfected mice served as the blank control (CK); the infected mice being treated with PBS were used as the negative control.
# E. coli CVCC195 [3] = experiment: Mouse peritonitis model, survival; assay type: in vivo, ICR mice; parameters: survival of mice in E. coli lethal model: unit not given here
# Protocol: To evaluate in vivo efficacy of N6 and N6-COOH-miniPEG, the 6-week-old female ICR mice, weight 20 ± 2 g (10 mice/group) were intraperitoneally injected with E. coli CVCC195 or S. pullorum CVCC533 at a concentration of absolute lethal dose (LD100). After the intraperitoneal injection with E. coli CVCC195 (1 × 10^9 CFU/mL, 0.2 mL), the mice were treated with N6 (2 and 4 μmol/kg), N6-COOH-miniPEG (2 and 4 μmol/kg) or PMB (0.125 and 0.25 μmol/kg) at 0.5 h and 8 h, respectively.
# Similarly, after the intraperitoneal injection with S. pullorum CVCC533 (5 × 10^7 CFU/mL, 0.2 mL), the mice were treated with N6 (8 and 10 μmol/kg), N6-COOH-miniPEG (8 and 10 μmol/kg) or CIP (0.8 and 1 μmol/kg) at 0.5 h, respectively. The mice injected with antibiotics or PBS served as the positive and blank control (CK), respectively. Survival of the mice was recorded daily for 7 d.
substance,measurement,setting,value
polymyxin B [PMB],bacteria counted in the organs of mice infected with E. coli,E. coli CVCC195 [1]; Kidney,3.851
same,bacteria counted in the organs of mice infected with E. coli,E. coli CVCC195 [1]; Liver,3.743
same,bacteria counted in the organs of mice infected with E. coli,E. coli CVCC195 [1]; Lung,3.796
same,bacteria counted in the organs of mice infected with E. coli,E. coli CVCC195 [1]; Spleen,3.605
same,levels of TNF-α in sera,E. coli 0111:B4 LPS; 2 h after treatment,99.8667
same,levels of TNF-α in sera,E. coli 0111:B4 LPS; 8 h after treatment,239.767
same,"Organ injury, histopathology",E. coli CVCC195 [2],"apparently less damage of liver, spleen, kidney and lung"
same,survival of mice in E. coli lethal model,"E. coli CVCC195 [3]; 0.125 μmol/kg, day 0",100
same,survival of mice in E. coli lethal model,"E. coli CVCC195 [3]; 0.125 μmol/kg, day 1",80
same,survival of mice in E. coli lethal model,"E. coli CVCC195 [3]; 0.125 μmol/kg, day 2",60
same,survival of mice in E. coli lethal model,"E. coli CVCC195 [3]; 0.125 μmol/kg, day 3",30
same,survival of mice in E. coli lethal model,"E. coli CVCC195 [3]; 0.125 μmol/kg, day 4",30
same,survival of mice in E. coli lethal model,"E. coli CVCC195 [3]; 0.125 μmol/kg, day 5",30
same,survival of mice in E. coli lethal model,"E. coli CVCC195 [3]; 0.125 μmol/kg, day 6",30
same,survival of mice in E. coli lethal model,"E. coli CVCC195 [3]; 0.125 μmol/kg, day 7",30
same,Survival rate of mice,"E. coli CVCC195 [3]; 0.25 μmol/kg i.p. at 0.5 h and 8 h, 7 d",100%
same,survival of mice in E. coli lethal model,"E. coli CVCC195 [3]; 0.25 μmol/kg, day 0",100
same,survival of mice in E. coli lethal model,"E. coli CVCC195 [3]; 0.25 μmol/kg, day 1",100
same,survival of mice in E. coli lethal model,"E. coli CVCC195 [3]; 0.25 μmol/kg, day 2",100
same,survival of mice in E. coli lethal model,"E. coli CVCC195 [3]; 0.25 μmol/kg, day 3",100
same,survival of mice in E. coli lethal model,"E. coli CVCC195 [3]; 0.25 μmol/kg, day 4",100
same,survival of mice in E. coli lethal model,"E. coli CVCC195 [3]; 0.25 μmol/kg, day 5",100
same,survival of mice in E. coli lethal model,"E. coli CVCC195 [3]; 0.25 μmol/kg, day 6",100
same,survival of mice in E. coli lethal model,"E. coli CVCC195 [3]; 0.25 μmol/kg, day 7",100
